Results as given in PMC5218480 (PLoS ONE, 2017).

System: MV-4-11 cells
Experiment: Gene expression microarray analysis (Affymetrix PrimeView) and GSEA
Assay type: cell-based, human
Set-up: RFU PODN (11730768_x_at) / Fold change /veh PODN (11730768_x_at) / RFU LINC00158 (11744669_a_at) / Fold change /veh LINC00158 (11744669_a_at) / RFU DUSP10 (11751237_a_at) / Fold change /veh DUSP10 (11751237_a_at) / RFU ID3 (11757404_x_at) / Fold change /veh ID3 (11757404_x_at) / RFU PLEKHG5 (11737974_s_at) / Fold change /veh PLEKHG5 (11737974_s_at) / RFU LRRC4B (11730491_at) / Fold change /veh LRRC4B (11730491_at) / RFU GIMAP4 (11747438_a_at) / Fold change /veh GIMAP4 (11747438_a_at) / RFU KRT8 (11758183_x_at) / Fold change /veh KRT8 (11758183_x_at) / RFU CNN1 (11734310_a_at) / Fold change /veh CNN1 (11734310_a_at) / RFU VPS37D (11726825_at) / Fold change /veh VPS37D (11726825_at) / RFU C10orf10 (11716522_x_at) / Fold change /veh C10orf10 (11716522_x_at) / RFU KIR2DL2 /// KIR2DL4 /// KIR2DL5A /// KIR2DL5B /// KIR2DS1 /// KIR2DS2 /// KIR2DS3 /// KIR2DS4 /// KIR3DL3 /// KIR3DL3 /// KIR3DS1 (11738374_at) / Fold change /veh KIR2DL2 /// KIR2DL4 /// KIR2DL5A /// KIR2DL5B /// KIR2DS1 /// KIR2DS2 /// KIR2DS3 /// KIR2DS4 /// KIR3DL3 /// KIR3DL3 /// KIR3DS1 (11738374_at) / RFU C1QL1 (11718748_at) / Fold change /veh C1QL1 (11718748_at) / RFU TMPRSS4 (11747572_a_at) / Fold change /veh TMPRSS4 (11747572_a_at) / RFU HAMP (11756126_x_at) / Fold change /veh HAMP (11756126_x_at) / RFU RNFT2 (11725882_a_at) / Fold change /veh RNFT2 (11725882_a_at) / RFU NR4A2 (11747474_a_at) / Fold change /veh NR4A2 (11747474_a_at) / RFU ABCC12 (11746883_a_at) / Fold change /veh ABCC12 (11746883_a_at) / RFU TMEM136 (11760407_x_at) / Fold change /veh TMEM136 (11760407_x_at) / RFU CLDN22 /// WWC2 (11732394_at) / Fold change /veh CLDN22 /// WWC2 (11732394_at) / RFU HLA-DPB1 (11760878_x_at) / Fold change /veh HLA-DPB1 (11760878_x_at) / RFU SPINT1 (11716480_a_at) / Fold change /veh SPINT1 (11716480_a_at) / RFU GAP43 (11754022_s_at) / Fold change /veh GAP43 (11754022_s_at) / RFU A4GNT (11735810_at) / Fold change /veh A4GNT (11735810_at) / RFU PRB3 (11715151_x_at) / Fold change /veh PRB3 (11715151_x_at) / RFU TUBB4B (11761932_at) / Fold change /veh TUBB4B (11761932_at) / RFU CAPN14 (11732068_a_at) / Fold change /veh CAPN14 (11732068_a_at) / RFU TMCC2 (11721928_a_at) / Fold change /veh TMCC2 (11721928_a_at) / RFU IRGQ (11745062_a_at) / Fold change /veh IRGQ (11745062_a_at) / RFU FAM174B (11720279_a_at) / Fold change /veh FAM174B (11720279_a_at) / RFU TMPRSS4 (11748680_a_at) / Fold change /veh TMPRSS4 (11748680_a_at) / RFU FAM212B (11763350_a_at) / Fold change /veh FAM212B (11763350_a_at) / RFU PLEKHG5 (11743358_a_at) / Fold change /veh PLEKHG5 (11743358_a_at) / RFU ZSCAN30 (11745921_a_at) / Fold change /veh ZSCAN30 (11745921_a_at) / RFU CMKLR1 (11741424_a_at) / Fold change /veh CMKLR1 (11741424_a_at) / RFU LOC101060620 /// MAPK8IP1 (11723275_at) / Fold change /veh LOC101060620 /// MAPK8IP1 (11723275_at) / RFU SPTSSB (11747773_x_at) / Fold change /veh SPTSSB (11747773_x_at) / RFU PRSS12 (11739890_at) / Fold change /veh PRSS12 (11739890_at) / RFU BIN1 (11741810_x_at) / Fold change /veh BIN1 (11741810_x_at) / RFU WNT11 (11732464_a_at) / Fold change /veh WNT11 (11732464_a_at) / RFU C10orf10 (11716521_a_at) / Fold change /veh C10orf10 (11716521_a_at) / RFU C5orf56 (11738089_at) / Fold change /veh C5orf56 (11738089_at) / RFU CYB561 (11721691_x_at) / Fold change /veh CYB561 (11721691_x_at) / RFU ANKRD19P (11752326_a_at) / Fold change /veh ANKRD19P (11752326_a_at) / RFU OR2T12 /// OR2T33 /// OR2T8 (11738714_s_at) / Fold change /veh OR2T12 /// OR2T33 /// OR2T8 (11738714_s_at) / RFU VCAN (11748164_a_at) / Fold change /veh VCAN (11748164_a_at) / RFU JSRP1 (11732532_at) / Fold change /veh JSRP1 (11732532_at) / RFU KRTAP10-11 (11738290_x_at) / Fold change /veh KRTAP10-11 (11738290_x_at) / RFU MYO3A (11730013_a_at) / Fold change /veh MYO3A (11730013_a_at) / RFU EBF3 (11725865_a_at) / Fold change /veh EBF3 (11725865_a_at) / RFU CAMK2N1 (11719241_x_at) / Fold change /veh CAMK2N1 (11719241_x_at) / RFU C5orf56 (11738088_a_at) / Fold change /veh C5orf56 (11738088_a_at) / RFU OLFML3 (11715873_a_at) / Fold change /veh OLFML3 (11715873_a_at) / RFU LOC100653217 /// NTM (11731650_a_at) / Fold change /veh LOC100653217 /// NTM (11731650_a_at) / RFU MAPK11 (11762145_a_at) / Fold change /veh MAPK11 (11762145_a_at) / RFU FIZ1 (11724087_x_at) / Fold change /veh FIZ1 (11724087_x_at) / RFU OASL (11726364_x_at) / Fold change /veh OASL (11726364_x_at) / RFU SOX15 (11748057_x_at) / Fold change /veh SOX15 (11748057_x_at) / RFU CD79A (11719716_a_at) / Fold change /veh CD79A (11719716_a_at) / RFU HIST1H1D (11736915_at) / Fold change /veh HIST1H1D (11736915_at) / RFU CASKIN2 (11723855_a_at) / Fold change /veh CASKIN2 (11723855_a_at) / RFU LOC730098 (11760151_x_at) / Fold change /veh LOC730098 (11760151_x_at) / RFU OR4N2 (11742367_at) / Fold change /veh OR4N2 (11742367_at) / RFU PRRT2 (11749266_a_at) / Fold change /veh PRRT2 (11749266_a_at) / RFU SNX32 (11753110_a_at) / Fold change /veh SNX32 (11753110_a_at) / RFU CDHR5 (11726645_a_at) / Fold change /veh CDHR5 (11726645_a_at) / RFU RCAN1 (11760418_a_at) / Fold change /veh RCAN1 (11760418_a_at) / RFU FAM167A (11723789_a_at) / Fold change /veh FAM167A (11723789_a_at) / RFU FAM26E (11764081_at) / Fold change /veh FAM26E (11764081_at) / RFU ISYNA1 (11749810_s_at) / Fold change /veh ISYNA1 (11749810_s_at) / RFU ACY1 (11761880_at) / Fold change /veh ACY1 (11761880_at) / RFU 11764098_at / Fold change /veh 11764098_at / RFU SAMD14 (11745864_x_at) / Fold change /veh SAMD14 (11745864_x_at) / RFU NPB (11741838_a_at) / Fold change /veh NPB (11741838_a_at) / RFU TMPRSS6 (11731388_a_at) / Fold change /veh TMPRSS6 (11731388_a_at) / RFU KRTAP10-2 (11738614_at) / Fold change /veh KRTAP10-2 (11738614_at) / RFU ARHGAP8 /// PRR5-ARHGAP8 (11727945_x_at) / Fold change /veh ARHGAP8 /// PRR5-ARHGAP8 (11727945_x_at) / RFU KRTAP5-7 /// NADSYN1 (11734609_at) / Fold change /veh KRTAP5-7 /// NADSYN1 (11734609_at) / RFU RASL12 (11751679_a_at) / Fold change /veh RASL12 (11751679_a_at) / RFU CDKN2B (11736163_a_at) / Fold change /veh CDKN2B (11736163_a_at) / RFU PRF1 (11729649_at) / Fold change /veh PRF1 (11729649_at) / RFU, ZNF638 /// ZNF638-IT1 / Fold change vs veh, ZNF638 /// ZNF638-IT1 / RFU, PANK3 / Fold change vs veh, PANK3 / RFU, SH3YL1 / Fold change vs veh, SH3YL1 / RFU, ZEB2 / Fold change vs veh, ZEB2 / RFU, NRIP1 / Fold change vs veh, NRIP1 / RFU, PTTG1IP / Fold change vs veh, PTTG1IP / RFU, CAPN2 / Fold change vs veh, CAPN2 / RFU, MED14 / Fold change vs veh, MED14 / RFU, SNORA58 / Fold change vs veh, SNORA58 / RFU, C1orf63 / Fold change vs veh, C1orf63 / RFU, LRRFIP1 / Fold change vs veh, LRRFIP1 / RFU, NDUFAF7 / Fold change vs veh, NDUFAF7 / RFU, SLC12A2 / Fold change vs veh, SLC12A2 / RFU, IBTK / Fold change vs veh, IBTK / RFU, ESF1 / Fold change vs veh, ESF1 / Fold change vs veh, TMEM50B / RFU, TAOK1 / Fold change vs veh, TAOK1 / RFU, ACBD3 / Fold change vs veh, ACBD3 / RFU, TMA16 / Fold change vs veh, TMA16 / RFU, RWDD3 / Fold change vs veh, RWDD3 / RFU, BCAT1 / Fold change vs veh, BCAT1 / RFU, EDEM3 / Fold change vs veh, EDEM3 / RFU, TMEM33 / Fold change vs veh, TMEM33 / RFU, WDR75 / Fold change vs veh, WDR75 / RFU, AHCTF1 / Fold change vs veh, AHCTF1 / RFU, TFRC / Fold change vs veh, TFRC / RFU, ZDHHC17 / Fold change vs veh, ZDHHC17 / RFU, NOM1 / Fold change vs veh, NOM1 / RFU, ARL8B / Fold change vs veh, ARL8B / RFU, ZBTB11 / Fold change vs veh, ZBTB11 / RFU, TAMM41 / Fold change vs veh, TAMM41 / RFU, KIAA1704 /// LOC100996395 / Fold change vs veh, KIAA1704 /// LOC100996395 / RFU, ING1 / Fold change vs veh, ING1 / RFU, TRMT61B / Fold change vs veh, TRMT61B / RFU, FUBP3 / Fold change vs veh, FUBP3 / RFU, TP53 / Fold change vs veh, TP53 / RFU, TNKS2 / Fold change vs veh, TNKS2 / RFU, ZFP14 / Fold change vs veh, ZFP14 / RFU, ACTR2 / Fold change vs veh, ACTR2 / RFU, PPP3R1 / Fold change vs veh, PPP3R1 / RFU, PIK3R1 / Fold change vs veh, PIK3R1 / RFU, HNRNPA1 / Fold change vs veh, HNRNPA1 / RFU, RNF170 / Fold change vs veh, RNF170 / RFU, ZNF28 / Fold change vs veh, ZNF28 / RFU, RNGTT / Fold change vs veh, RNGTT / RFU, OGT / Fold change vs veh, OGT / RFU, BRD1 / Fold change vs veh, BRD1 / RFU, MARS / Fold change vs veh, MARS / RFU, ZNF655 / Fold change vs veh, ZNF655 / RFU, FAHD1 / Fold change vs veh, FAHD1 / RFU, BDP1 / Fold change vs veh, BDP1 / RFU, LRRCC1 / Fold change vs veh, LRRCC1 / RFU, ARID1A / Fold change vs veh, ARID1A / RFU, ZNF146 / Fold change vs veh, ZNF146 / RFU, ZNF330 / Fold change vs veh, ZNF330 / RFU, GPN3 / Fold change vs veh, GPN3 / RFU, C9orf123 / Fold change vs veh, C9orf123 / RFU, N4BP2L2 / Fold change vs veh, N4BP2L2 / RFU, ARFIP1 / Fold change vs veh, ARFIP1 / RFU, FAM179B / Fold change vs veh, FAM179B / RFU, BCL10 / Fold change vs veh, BCL10 / RFU, UHRF1BP1L / Fold change vs veh, UHRF1BP1L / RFU, BET1 / Fold change vs veh, BET1 / RFU, CNOT2 / Fold change vs veh, CNOT2 / RFU, ZNF268 / Fold change vs veh, ZNF268 / Fold change vs veh, ZNF507 / RFU, DGCR2 / Fold change vs veh, DGCR2 / RFU, WDSUB1 / Fold change vs veh, WDSUB1 / Fold change vs veh, HSP90B1 /// MIR3652 / RFU, ADSS / Fold change vs veh, ADSS / RFU, GK / Fold change vs veh, GK / RFU, ZNF148 / Fold change vs veh, ZNF148 / RFU, TAF9 / Fold change vs veh, TAF9 / RFU, SLC1A5 / Fold change vs veh, SLC1A5 / RFU, SLMO2 / Fold change vs veh, SLMO2 / RFU, ABCC4 / Fold change vs veh, ABCC4 / RFU, LOC101060439 /// RAP1B / Fold change vs veh, LOC101060439 /// RAP1B / RFU, RFX7 / Fold change vs veh, RFX7 / RFU, GTPBP10 / Fold change vs veh, GTPBP10 / RFU, CNEP1R1 / Fold change vs veh, CNEP1R1 / RFU, BIVM-ERCC5 /// ERCC5 / Fold change vs veh, BIVM-ERCC5 /// ERCC5 / RFU, ILF3 / Fold change vs veh, ILF3 / RFU 11762660_at / Fold change /veh 11762660_at / RFU VCAN (11757783_s_at) / Fold change /veh VCAN (11757783_s_at) / RFU DDX43 (11728927_at) / Fold change /veh DDX43 (11728927_at) / RFU KRT8 (11758188_x_at) / Fold change /veh KRT8 (11758188_x_at) / RFU NKD1 (11759106_at) / Fold change /veh NKD1 (11759106_at) / RFU SRD5A1 (11742802_a_at) / Fold change /veh SRD5A1 (11742802_a_at) / RFU TPSAB1 /// TPSB2 (11721975_s_at) / Fold change /veh TPSAB1 /// TPSB2 (11721975_s_at) / RFU GSTM3 (11746129_a_at) / Fold change /veh GSTM3 (11746129_a_at) / RFU IL23R (11737362_x_at) / Fold change /veh IL23R (11737362_x_at) / RFU TMEM51 (11727254_a_at) / Fold change /veh TMEM51 (11727254_a_at) / RFU PIWIL2 (11732686_x_at) / Fold change /veh PIWIL2 (11732686_x_at) / RFU ORM1 (11744905_x_at) / Fold change /veh ORM1 (11744905_x_at) / RFU CCDC152 (11743942_at) / Fold change /veh CCDC152 (11743942_at) / RFU ECM1 (11717891_a_at) / Fold change /veh ECM1 (11717891_a_at) / RFU IL23R (11748794_a_at) / Fold change /veh IL23R (11748794_a_at) / RFU TNFAIP8L3 (11732012_x_at) / Fold change /veh TNFAIP8L3 (11732012_x_at) / RFU MBOAT4 (11741988_at) / Fold change /veh MBOAT4 (11741988_at) / RFU 11764193_at / Fold change /veh 11764193_at / RFU TMEM53 (11763286_at) / Fold change /veh TMEM53 (11763286_at) / RFU MAGEB2 (11727129_at) / Fold change /veh MAGEB2 (11727129_at) / RFU TMEM200A (11744735_a_at) / Fold change /veh TMEM200A (11744735_a_at) / RFU CCDC152 (11751479_a_at) / Fold change /veh CCDC152 (11751479_a_at) / RFU FAM211A (11726209_a_at) / Fold change /veh FAM211A (11726209_a_at) / RFU RGS16 (11746705_a_at) / Fold change /veh RGS16 (11746705_a_at) / RFU VCAN (11755009_s_at) / Fold change /veh VCAN (11755009_s_at) / RFU RHOB (11743442_s_at) / Fold change /veh RHOB (11743442_s_at) / RFU RGS16 (11720943_a_at) / Fold change /veh RGS16 (11720943_a_at) / RFU RGS16 (11720944_at) / Fold change /veh RGS16 (11720944_at) / RFU, VPS4B / Fold change vs veh, VPS4B / RFU, CREB1 / Fold change vs veh, CREB1 / RFU, DNAJC13 / Fold change vs veh, DNAJC13 / RFU, GNAQ / Fold change vs veh, GNAQ / RFU, CDK5R1 / Fold change vs veh, CDK5R1 / RFU, ZRANB3 / Fold change vs veh, ZRANB3 / RFU, CUL4A / Fold change vs veh, CUL4A / RFU, CCNY / Fold change vs veh, CCNY / RFU, UFL1 / Fold change vs veh, UFL1 / RFU, COG3 / Fold change vs veh, COG3 / RFU, DIAPH2 / Fold change vs veh, DIAPH2 / RFU, SKA2 / Fold change vs veh, SKA2 / RFU, AFF3 / Fold change vs veh, AFF3 / RFU, LMF1 / Fold change vs veh, LMF1 / RFU, IPO11 / Fold change vs veh, IPO11 / RFU, DFFB / Fold change vs veh, DFFB / RFU, FOXP1 / Fold change vs veh, FOXP1 / RFU, CARD8 / Fold change vs veh, CARD8 / RFU, STRN3 / Fold change vs veh, STRN3 / RFU, ADK / Fold change vs veh, ADK / RFU, RASSF2 / Fold change vs veh, RASSF2 / RFU, WIPF1 / Fold change vs veh, WIPF1 / RFU, LARP1B / Fold change vs veh, LARP1B / RFU, RASA1 / Fold change vs veh, RASA1 / RFU, RB1 / Fold change vs veh, RB1 / RFU, PPFIA1 / Fold change vs veh, PPFIA1 / RFU, MAT2A / Fold change vs veh, MAT2A / RFU, CCT5 / Fold change vs veh, CCT5 / RFU, WDR92 / Fold change vs veh, WDR92 / RFU, CUX1 / Fold change vs veh, CUX1 / RFU, TTC7A / Fold change vs veh, TTC7A / RFU, TMEM135 / Fold change vs veh, TMEM135 / RFU, DEPTOR / Fold change vs veh, DEPTOR / RFU, CPM / Fold change vs veh, CPM / RFU, DNAJB6 / Fold change vs veh, DNAJB6 / RFU, CACNA2D3 / Fold change vs veh, CACNA2D3 / RFU, DTX4 / Fold change vs veh, DTX4 / RFU, TFCP2 / Fold change vs veh, TFCP2 / RFU, GMCL1 /// GMCL1P1 / Fold change vs veh, GMCL1 /// GMCL1P1 / RFU, AEBP2 / Fold change vs veh, AEBP2 / RFU, SNHG1 /// SNORD22 /// SNORD25 /// SNORD26 /// SNORD27 /// SNORD28 /// SNORD29 /// SNORD31 / Fold change vs veh, SNHG1 /// SNORD22 /// SNORD25 /// SNORD26 /// SNORD27 /// SNORD28 /// SNORD29 /// SNORD31 / Fold change (Aza/veh), C12orf56 (ProbeSet 11735607_a_at) / Fold change (ACY-1035/veh), C12orf56 (ProbeSet 11735607_a_at) / Fold change (Aza/veh), FGFR1OP (ProbeSet 11751329_s_at) / Fold change (ACY-1035/veh), FGFR1OP (ProbeSet 11751329_s_at) / Fold change (Aza/veh), VPS36 (ProbeSet 11739960_a_at) / Fold change (ACY-1035/veh), VPS36 (ProbeSet 11739960_a_at) / RFU SYPL1 (11715823_x_at) / Fold change /veh SYPL1 (11715823_x_at) / RFU IGFBP7 (11715501_s_at) / Fold change /veh IGFBP7 (11715501_s_at) / RFU REEP3 (11722064_at) / Fold change /veh REEP3 (11722064_at) / RFU IGLL1 (11728026_x_at) / Fold change /veh IGLL1 (11728026_x_at): dose or concentration left out as unconfirmed
Details: ProbeSet 11741199_a_at; LIST B

Structure (SMILES): Nc1ccc(-c2cccs2)cc1NC(=O)c1ccc2c(c1)cc(C1CC1)n2CCN1CCOCC1 [ACY-1035]
- RFU, LRRCC1: 56.24 RFU
